Test results: patent publication US12540118B2, “Dendrene amide compound, bactericide and use thereof” (Jiangsu Flag Chemical Industry Co., Ltd., priority 2020, dated 2026)

Legend:
succinate dehydrogenase = biological target: T1, succinate dehydrogenase (Sus scrofa, UniProt A5GZW8+D0VWV4+Q007T0); test: Enzyme activity assay, succinate dehydrogenase (DCIP reduction); type: biochemical, porcine; settings: read-out: Inhibitors (10 μM, SQR)
T1 construct: isolated from porcine hearts; from tissue; host or cells: porcine heart
T1 sequence (Q0QF01 43-664 partner): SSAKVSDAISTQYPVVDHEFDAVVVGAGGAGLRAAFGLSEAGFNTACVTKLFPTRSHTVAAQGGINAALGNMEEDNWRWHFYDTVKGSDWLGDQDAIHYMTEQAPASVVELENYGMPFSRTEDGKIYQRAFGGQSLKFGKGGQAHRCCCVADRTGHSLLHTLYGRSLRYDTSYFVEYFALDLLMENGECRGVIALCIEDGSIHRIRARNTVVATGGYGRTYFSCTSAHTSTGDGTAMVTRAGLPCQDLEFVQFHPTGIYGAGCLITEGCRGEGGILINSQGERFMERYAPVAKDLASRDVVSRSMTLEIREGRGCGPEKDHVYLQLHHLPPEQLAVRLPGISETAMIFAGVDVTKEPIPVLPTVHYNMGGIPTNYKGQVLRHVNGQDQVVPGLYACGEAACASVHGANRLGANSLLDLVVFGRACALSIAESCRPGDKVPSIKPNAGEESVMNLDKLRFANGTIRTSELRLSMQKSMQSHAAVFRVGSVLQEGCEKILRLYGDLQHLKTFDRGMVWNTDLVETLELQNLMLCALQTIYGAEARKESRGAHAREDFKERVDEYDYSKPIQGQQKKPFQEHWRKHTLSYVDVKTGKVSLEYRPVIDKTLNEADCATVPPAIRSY
T1 sequence (Q007T0 29-280): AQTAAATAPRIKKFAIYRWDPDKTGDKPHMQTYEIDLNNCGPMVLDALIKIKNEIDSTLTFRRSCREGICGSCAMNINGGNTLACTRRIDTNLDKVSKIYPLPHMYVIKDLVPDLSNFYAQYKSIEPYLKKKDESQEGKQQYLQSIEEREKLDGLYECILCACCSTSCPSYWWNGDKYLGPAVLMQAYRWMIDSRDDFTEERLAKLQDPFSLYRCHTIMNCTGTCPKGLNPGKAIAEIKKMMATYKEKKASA
T1 sequence (D0VWV4 30-169): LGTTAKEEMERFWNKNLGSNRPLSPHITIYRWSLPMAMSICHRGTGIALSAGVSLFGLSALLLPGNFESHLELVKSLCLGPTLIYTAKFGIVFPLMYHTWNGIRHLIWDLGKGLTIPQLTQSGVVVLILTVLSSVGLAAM
T1 sequence (A5GZW8 57-159 limits assumed): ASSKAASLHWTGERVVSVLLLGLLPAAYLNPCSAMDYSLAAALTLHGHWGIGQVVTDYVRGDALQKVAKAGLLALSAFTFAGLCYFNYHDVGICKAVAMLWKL
Description: The inhibitory activities of control agents and target compounds on succinate dehydrogenase are determined.
The enzyme used in this test example is succinate dehydrogenase, which is isolated from porcine hearts.
The test method comprises the following steps: The total volume of the system is 1.8 ml, and the system contained 100 mM Na2HPO4—NaH2PO4 buffer (pH=7.4), 0.3 mM EDTA, 20 mM sodium succinate, 53 μM DCIP (2,6-dichloroindophenol sodium), and 2 nM succinate dehydrogenase. Thermostatic waterbath at 23° C. and magnetic stirring at 600 rpm. The decrease in the light absorption of the substrate DCIP is monitored at a wavelength of 600 nm and experimental points in a linear range are collected. Control substrate consumption not more than 5% of the experimental points. The molar extinction coefficient of DCIP is 21 mM^−1 cm^−1. And calculating the reduction yield of the DCIP in the reaction time, fitting a linear slope, and deducting the baseline slope to obtain the initial reaction speed.

Erysiphe graminis = Erysiphe graminis potting method; type: in vivo; settings: for pest or weed control at 100 µg/mL / pest or weed control at 6.25 µg/mL / pest or weed control at 25 µg/mL: Blumeria graminis, read-out: Erysiphe graminis control rating
Description: The fungicidal activity of the control agents and target compounds are determined. The test and investigation method refers to SOP-SC-1116 Erysiphe graminis potting method in disinfectant rolls written by KANGZHUO and GUBAOGEN in “Standard operation specification for testing biological activity of pesticides”.

Sphaerotheca fuliginea = Sphaerotheca fuliginea potting method; type: in vivo; settings: 100 mg/L; for pest or weed control at 100 µg/mL: Podosphaera fuliginea, read-out: Sphaerotheca fuliginea control rating
Description: The fungicidal activity of the control agents and target compounds are determined. The test and investigation method refers to SOP-SC-1101 sphaerotheca fuliginea potting method in disinfectant rolls written by KANGZHUO and GUBAOGEN in “Standard operation specification for testing biological activity of pesticides”.

| SMILES | inhibition at 10 µM (succinate dehydrogenase) [%] | pest or weed control at 100 µg/mL (Erysiphe graminis; 100 mg/L) [%] | pest or weed control at 100 µg/mL (Sphaerotheca fuliginea) [%] | other results |
| --- | --- | --- | --- | --- |
| C=C(c1ccc(F)c(F)c1)C(C)N(C(=O)c1c(C(F)F)nn(C)c1F)C1CC1 (stereo not shown) [Compound 62] | > 90 | 80 to 100 | 80 to 100 |  |
| Cn1nc(C(F)F)c(C(=O)N(CC(=C(Cl)Cl)c2ccccc2F)C2CC2)c1F [Compound 115] | > 90 | 80 to 100 | 80 to 100 |  |
| CC(C(=C(Cl)Cl)c1ccccc1F)N(C(=O)c1c(C(F)F)nn(C)c1F)C1CC1 (stereo not shown) [Compound 176] | > 90 | 80 to 100 | 80 to 100 |  |
| CC(C(=C(Cl)Cl)c1cc(Cl)cc(Cl)c1)N(C(=O)c1c(C(F)F)nn(C)c1F)C1CC1 (stereo not shown) [Compound 174] | > 90 | 80 to 100 | 80 to 100 |  |
| Cc1cc(C(C)C)ccc1C(=C(Cl)Cl)C(C)N(C(=O)c1c(C(F)F)nn(C)c1F)C1CC1 (stereo not shown) [Compound 201] | > 90 | 80 to 100 | 80 to 100 |  |
| C=C(c1cccc(C)c1)C(C)N(C(=O)c1c(C(F)F)nn(C)c1F)C1CC1 (stereo not shown) [Compound 70] | > 90 | 80 to 100 | 80 to 100 |  |
| Cn1nc(C(F)F)c(C(=O)N(CC(=C(Cl)Cl)c2cc(F)ccc2F)C2CC2)c1F [Compound 127] | > 90 | 80 to 100 | 80 to 100 |  |
| C=C(CN(C(=O)c1c(C(F)F)nn(C)c1F)C1CC1)c1c(Br)cc(Br)cc1Br [Compound 31] | > 90 | 80 to 100 | 80 to 100 |  |
| C=C(CN(C(=O)c1c(C(F)F)nn(C)c1F)C1CC1)c1cc(C(C)C)ccc1C [Compound 37] | > 90 | 80 to 100 | 70 to 80 | pest or weed control at 6.25 µg/mL (Erysiphe graminis; 6.25 mg/L): 70 to 80%; pest or weed control at 25 µg/mL (Erysiphe graminis; 25 mg/L): 80 to 100% |
| C=C(c1cc(F)ccc1F)C(C)N(C(=O)c1c(C(F)F)nn(C)c1F)C1CC1 (stereo not shown) [Compound 77] | > 90 | 80 to 100 | 80 to 100 |  |
| CC(C(=C(Cl)Cl)c1ccc(S(C)(=O)=O)cc1Cl)N(C(=O)c1c(C(F)F)nn(C)c1F)C1CC1 (stereo not shown) [Compound 212] | > 90 | 80 to 100 | 80 to 100 |  |
| Cn1nc(C(F)F)c(C(=O)N(CC(=C(Cl)Cl)c2cc(Cl)ccc2Cl)C2CC2)c1F [Compound 119] | > 90 | 80 to 100 | 80 to 100 |  |
| Cn1nc(C(F)F)c(C(=O)N(CC(=C(Cl)Cl)c2c(F)cc(F)cc2F)C2CC2)c1F [Compound 129] | > 90 | 80 to 100 | 80 to 100 |  |
| Cc1ccc(C)c(C(=C(Cl)Cl)C(C)N(C(=O)c2c(C(F)F)nn(C)c2F)C2CC2)c1 (stereo not shown) [Compound 194] | > 90 | 80 to 100 | 80 to 100 |  |
| Cn1nc(C(F)F)c(C(=O)N(CC(=C(Cl)Cl)c2cc(S(C)(=O)=O)ccc2Cl)C2CC2)c1F [Compound 162] | > 90 | 80 to 100 | 80 to 100 |  |
| C=C(CN(C(=O)c1c(C(F)F)nn(C)c1F)C1CC1)c1cc(S(C)(=O)=O)ccc1Cl [Compound 51] | > 90 | 80 to 100 | 80 to 100 |  |
| C=C(c1cccc(Cl)c1)C(C)N(C(=O)c1c(C(F)F)nn(C)c1F)C1CC1 (stereo not shown) [Compound 57] | > 90 | 80 to 100 | 80 to 100 |  |
| Cn1nc(C(F)F)c(C(=O)N(CC(=C(Cl)Cl)c2c(F)cccc2F)C2CC2)c1F [Compound 128] | > 90 | 80 to 100 | 80 to 100 |  |
| C=C(c1ccc(F)cc1F)C(C)N(C(=O)c1c(C(F)F)nn(C)c1F)C1CC1 (stereo not shown) [Compound 64] | > 90 | 80 to 100 | 80 to 100 |  |
| CC(C(=C(Cl)Cl)c1cc(Br)ccc1Br)N(C(=O)c1c(C(F)F)nn(C)c1F)C1CC1 (stereo not shown) [Compound 188] | > 90 | 80 to 100 | 80 to 100 |  |
| C=C(CN(C(=O)c1c(C(F)F)nn(C)c1F)C1CC1)c1cccc(Cl)c1 [Compound 16] | > 90 | 80 to 100 | 70 to 80 |  |
| C=C(c1ccccc1Br)C(C)N(C(=O)c1c(C(F)F)nn(C)c1F)C1CC1 (stereo not shown) [Compound 80] | > 90 | 80 to 100 | 80 to 100 |  |
| CC(C(=C(Cl)Cl)c1ccccc1Br)N(C(=O)c1c(C(F)F)nn(C)c1F)C1CC1 (stereo not shown) [Compound 185] | > 90 | 80 to 100 | 80 to 100 |  |
| OC(Cc1ccccc1Cl)(Cn1nc[nH]c1=S)C1(Cl)CC1 (stereo not shown) [Prothioconazole, reference compound] |  | 80 to 100 | 70 to 80 | pest or weed control at 6.25 µg/mL (Erysiphe graminis; 6.25 mg/L): 70 to 80%; pest or weed control at 25 µg/mL (Erysiphe graminis; 25 mg/L): 80 to 100% |
| CNC(=O)/C(=N/OC)c1ccccc1CO/N=C(C)/C=C/c1c(Cl)cccc1Cl [Fenaminstrobin, reference compound] |  |  |  | Erysiphe graminis control rating (Erysiphe graminis; 6.25 mg/L): B (70% ≤ B < 80%); Erysiphe graminis control rating (Erysiphe graminis; 25 mg/L): A (80% ≤ A ≤ 100%); Erysiphe graminis control rating (Erysiphe graminis; 100 mg/L): A (80% ≤ A ≤ 100%); Sphaerotheca fuliginea control rating (Sphaerotheca fuliginea): B (70% ≤ B < 80%) |

Continued, in another order:

| inhibition at 10 µM (succinate dehydrogenase) [%] | SMILES | pest or weed control at 100 µg/mL (Erysiphe graminis; 100 mg/L) [%] | pest or weed control at 100 µg/mL (Sphaerotheca fuliginea) [%] | other results |
| --- | --- | --- | --- | --- |
| > 90 | Cc1ccc(C(CN(C(=O)c2c(C(F)F)nn(C)c2F)C2CC2)=C(Cl)Cl)cc1C [Compound 151] | 80 to 100 | 80 to 100 |  |
| > 90 | Cc1cc(C)cc(C(=C(Cl)Cl)C(C)N(C(=O)c2c(C(F)F)nn(C)c2F)C2CC2)c1 (stereo not shown) [Compound 205] | 80 to 100 | 80 to 100 |  |
| > 90 | Cn1nc(C(F)F)c(C(=O)N(CC(=C(Cl)Cl)c2ccc(Br)c(Br)c2)C2CC2)c1F [Compound 138] | 80 to 100 | 80 to 100 |  |
| > 90 | C=C(c1c(C)cccc1C)C(C)N(C(=O)c1c(C(F)F)nn(C)c1F)C1CC1 (stereo not shown) [Compound 90] | 80 to 100 | 80 to 100 |  |
| > 90 | Cc1ccc(C(C)(C)C)cc1C(=C(Cl)Cl)C(C)N(C(=O)c1c(C(F)F)nn(C)c1F)C1CC1 (stereo not shown) [Compound 200] | 80 to 100 | 80 to 100 |  |
| > 90 | C=C(c1ccc(Cl)c(Cl)c1)C(C)N(C(=O)c1c(C(F)F)nn(C)c1F)C1CC1 (stereo not shown) [Compound 65] | 80 to 100 | 80 to 100 |  |
| > 90 | Cn1nc(C(F)F)c(C(=O)N(CC(=C(Cl)Cl)c2ccc(Br)cc2Br)C2CC2)c1F [Compound 134] | 80 to 100 | 80 to 100 |  |
| > 90 | C=C(CN(C(=O)c1c(C(F)F)nn(C)c1F)C1CC1)c1cc(C(F)(F)F)ccc1Cl [Compound 45] | 80 to 100 | 80 to 100 |  |
| > 90 | CC(C(=C(Cl)Cl)c1cccc(F)c1)N(C(=O)c1c(C(F)F)nn(C)c1F)C1CC1 (stereo not shown) [Compound 177] | 80 to 100 | 80 to 100 |  |
| > 90 | C=C(c1ccc(C)cc1)C(C)N(C(=O)c1c(C(F)F)nn(C)c1F)C1CC1 (stereo not shown) [Compound 60] | 80 to 100 | 80 to 100 |  |
| > 90 | C=C(c1ccc(C(C)C)cc1C)C(C)N(C(=O)c1c(C(F)F)nn(C)c1F)C1CC1 (stereo not shown) [Compound 96] | 80 to 100 | 80 to 100 |  |
| > 90 | Cn1nc(C(F)F)c(C(=O)N(CC(=C(Cl)Cl)c2ccc(Cl)cc2)C2CC2)c1F [Compound 112] | 80 to 100 | 80 to 100 |  |
| > 90 | CC(C(=C(Cl)Cl)c1ccc(Br)cc1)N(C(=O)c1c(C(F)F)nn(C)c1F)C1CC1 (stereo not shown) [Compound 184] | 80 to 100 | 80 to 100 |  |
| > 90 | C=C(CN(C(=O)c1c(C(F)F)nn(C)c1F)C1CC1)c1ccc(C(C)C)cc1C [Compound 41] | 80 to 100 | 80 to 100 |  |
| > 90 | Cn1nc(C(F)F)c(C(=O)N(CC(=C(Cl)Cl)c2cc(C(F)(F)F)ccc2Cl)C2CC2)c1F [Compound 156] | 80 to 100 | 80 to 100 |  |
